US20250163057A1, “DCN-1 MODULATING COMPOUNDS AND METHODS OF USE THEREOF” (Cellarity, Inc., priority 2023, published 2025)
Like-named read-outs stand apart in the source and are kept apart here.

Legend:
[1] = molecular target: DCN1 (DCUND1) protein PONY domain (Homo sapiens (Human), UniProt Q96GG9); test: TR-FRET assay, DCN1 binding with FAM-labeled probe
In short: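 First, the E. coli-derived PONY domain was biotinylated and paired with streptavidin Tb cryptate. Compounds in 0.1% DMSO were then added to DCN1 and FAM-probe (5 nM/20 nM, or 0.31 nM/900 nM total with 800 nM unlabelled) in TritonX, 200 mM NaCl buffer. Finally, TR-FRET ratios were recorded at 1, 5 and 24 hrs.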

[2] = tested on: Cullin-3 (CUL3) neddylation; test: AlphaLISA assay for Cullin-3 (CUL3) neddylation in TF 1 cells; assay type: cell-based; settings: Homo sapiens, 3 hours treatment
In short: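 Neddylated CUL3 was quantified by AlphaLISA in lysates of TF 1 cells exposed for 3 h to test compound in IMDM without supplements. Percent inhibition set between vehicle and 1 μM DI-1548 positive control; IC50 derived by Hill-equation fitting of dose-response curves.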

[3] = 24 hr after treatment with compound, read-out: TR FRET IC50 24 hr
[4] = read-out: TR FRET IC50 1 hr, 1 hr after treatment with compound
[5] = TR FRET IC50 1 hr (nM), 1 hr after treatment with compound

DCN1 (DCUND1) protein PONY domain, sequence (Q96GG9 60-248): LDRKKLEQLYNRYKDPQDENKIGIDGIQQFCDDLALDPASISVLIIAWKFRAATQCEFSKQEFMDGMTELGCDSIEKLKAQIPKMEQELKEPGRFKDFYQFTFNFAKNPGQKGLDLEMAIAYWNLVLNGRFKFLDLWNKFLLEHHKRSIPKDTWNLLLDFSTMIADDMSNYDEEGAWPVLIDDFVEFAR

Structure (SMILES) | IC50 [1, 3] [nM] | IC50 [1, 4] [nM] | IC50 ([2]; TF-1, 3 h) [nM] | IC50 [1, 5] [nM] | IC50 [2] [nM]
CCN1C(=O)[C@@](C)(NC(=O)c2cccc(C(F)(F)F)c2)[C@@H](C2CC2)c2c(C(=O)N3[C@H](C#N)C[C@H]4C[C@H]43)nn(C3CCOCC3)c21 [Compound I-516, N-((4S,5S)-3-((1R,3S,5R)-3-cyano-2-azabicyclo[3.1.0]hexane-2-carbonyl)-4-cyclopropyl-7-ethyl-5-methyl-6-oxo-1-(tetrahydro-2H-pyran-4-yl)-4,5,6,7-tetrahydro-1H-pyrazolo[3,4-b]pyridin-5-yl)-3-(trifluoromethyl)benzamide] | ≤ 200 | ≤ 200 | ≤ 100 |  | 
CCN1C(=O)[C@@H](NC(=O)c2cccc(C(F)(F)F)c2)[C@@H](C2CC2)c2c(C(=O)N3CS(=O)(=O)C[C@H]3C#N)nn(-c3ccccc3)c21 [Compound I-519] | ≤ 200 | ≤ 200 | ≤ 100 |  | 
CCN1C(=O)[C@@H](NC(=O)c2cccc(C(F)(F)F)c2)[C@@H](C2CC2)c2c(C(=O)N3CS(=O)(=O)C[C@@H]3C#N)nn(-c3ccccc3)c21 [Compound I-521] | ≤ 200 |  | ≤ 100 | 1000 to 3000 | 
CCN1C(=O)[C@H](NC(=O)c2cccc(C(F)(F)F)c2)[C@@H](c2ccc(F)cc2)c2c(COCC#N)nn(-c3ccccc3)c21 [Compound I-522] | 1000 to 3000 |  | > 1000 | 1000 to 3000 | 
CCN1C(=O)[C@@H](NC(=O)c2cccc(C(F)(F)F)c2)[C@@H](C2CCCC2)c2c(C(=O)N(C)[C@H](C)C#N)nn(C3CCOCC3)c21 [Compound I-524] | ≤ 200 |  | ≤ 100 | 200 to 1000 | 
CCN1C(=O)[C@H](NC(=O)c2cccc(C(F)(F)F)c2)[C@H](c2ccc(F)cn2)c2c([C@@H](C)NC#N)nn(-c3ccccc3)c21 [Compound I-525] | 1000 to 3000 |  | > 1000 | 1000 to 3000 | 
CCN1C(=O)[C@@H](NC(=O)c2ccc3ccoc3c2)[C@@H](C2CC2)c2c(C(=O)N3[C@H](C#N)C[C@H]4C[C@H]43)nn(C3CCOCC3)c21 [Compound I-526] | ≤ 200 | ≤ 200 |  |  | ≤ 100
CCN1C(=O)[C@@H](NC(=O)c2cccc3cccnc23)[C@@H](C2CC2)c2c(C(=O)N3[C@H](C#N)C[C@H]4C[C@H]43)nn(C3CCOCC3)c21 [Compound I-527] | ≤ 200 |  | 100 to 1000 | 200 to 1000 | 
CCN1C(=O)[C@@H](NC(=O)c2cccc(C(F)(F)F)c2)[C@@H](c2ccc(F)cc2)c2c([C@H](C)NC#N)nn(-c3ccccc3)c21 [Compound I-530] | ≤ 200 |  | ≤ 100 | 200 to 1000 | 
C=CC(=O)N[C@H](C)c1nn(-c2ccccc2)c2c1[C@@H](c1ccc(F)cc1)[C@H](NC(=O)c1nccc(C(F)(F)F)n1)C(=O)N2CC [Compound I-533] | 200 to 1000 |  | 100 to 1000 | 200 to 1000 | 
CCN1C(=O)[C@H](NC(=O)c2cccc(C(F)(F)F)c2)[C@H](c2ccc(F)cc2)c2c(C(=O)N3CCNC[C@@H]3C#N)nn(-c3ccccc3)c21 [Compound I-534] | 1000 to 3000 |  | > 1000 | 1000 to 3000 | 
CCN1C(=O)[C@H](NC(=O)c2cccc(C(F)(F)F)c2)[C@H](c2ccc(F)cc2)c2c(C(=O)N3CC[C@H]3C#N)nn(-c3ccccc3)c21 [Compound I-535] | 1000 to 3000 |  | > 1000 | 1000 to 3000 | 
CCN1C(=O)[C@@H](NC(=O)c2cccc(C(F)(F)F)c2)[C@@H](c2ccc(F)cc2)c2c([C@@H](C)N(C#N)C(=O)OCCN3CCN(C)CC3)nn(-c3ccccc3)c21 [Compound I-536] | ≤ 200 | ≤ 200 | 100 to 1000 |  | 
CCN1C(=O)[C@@H](NC(=O)c2cccc(C(F)(F)F)c2)[C@@H](c2ccc(F)cc2)c2c(CCN(C#N)CCO)nn(-c3ccccc3)c21 [Compound I-538] | ≤ 200 |  | 100 to 1000 | 200 to 1000 | 
CCN1C(=O)[C@@](C)(NC(=O)c2cccc(C(F)(F)F)c2)[C@@H](c2ccc(F)cc2)c2c([C@@H](C)NC#N)nn(-c3ccccc3)c21 [Compound I-539] | ≤ 200 | ≤ 200 | ≤ 100 |  | 
CCN1C(=O)[C@H](NC(=O)c2cccc(C(F)(F)F)c2)[C@H](c2ccc(F)cc2)c2c(C(=O)N3CCOC[C@H]3C#N)nn(-c3ccccc3)c21 [Compound I-540] | 1000 to 3000 |  | > 1000 | 1000 to 3000 | 
CCN1C(=O)[C@H](NC(=O)c2cccc(C(F)(F)F)c2)[C@H](c2ccc(F)cc2)c2c(C(=O)N3[C@H](C#N)C[C@H]4C[C@H]43)nn(-c3ccccc3)c21 [Compound I-541] | 1000 to 3000 |  | > 1000 | 1000 to 3000 | 
CCN1C(=O)[C@@H](NC(=O)c2cccc(C(F)(F)F)c2)[C@@H](c2ccc(F)cc2)c2c(CN(CC#N)C(C)=O)nn(-c3ccccc3)c21 [Compound I-542, N-((4S,5S)-3-((N-(cyanomethyl)acetamido)methyl)-7-ethyl-4-(4-fluorophenyl)-6-oxo-1-phenyl-4,5,6,7-tetrahydro-1H-pyrazolo[3,4-b]pyridin-5-yl)-3-(trifluoromethyl)benzamide] | 200 to 1000 |  | 100 to 1000 | 1000 to 3000 | 
CCN1C(=O)[C@H](NC(=O)c2cccc(C(F)(F)F)c2)[C@H](c2ccc(F)cc2)c2c(C(=O)N3CCC[C@H]3C#N)nn(-c3cccc(OCCCN4CCOCC4)c3)c21 [Compound I-544] | 1000 to 3000 |  | > 1000 | 1000 to 3000 | 
CCN1C(=O)[C@@H](NC(=O)[C@@H]2CCc3nccc(=O)n32)[C@@H](C2CC2)c2c(C(=O)N3[C@H](C#N)C[C@H]4C[C@H]43)nn(C3CCOCC3)c21 [Compound I-548] | 1000 to 3000 |  | > 1000 | 1000 to 3000 | 
CCN1C(=O)[C@@H](NC(=O)c2cccc(C(F)(F)F)c2)[C@@H](C2CC2)c2c(C(=O)N(C)[C@@H](C)C#N)nn(C3CCOCC3)c21 [Compound I-549, (4S,5S)—N—((S)-1-cyanoethyl)-4-cyclopropyl-7-ethyl-N-methyl-6-oxo-1-(tetrahydro-2H-pyran-4-yl)-5-(3-(trifluoromethyl)benzamido)-4,5,6,7-tetrahydro-1H-pyrazolo[3,4-b]pyridine-3-carboxamide] | ≤ 200 |  | ≤ 100 | 200 to 1000 | 
CCN1C(=O)[C@@H](NC(=O)c2cccc(C(F)(F)F)c2)[C@@H](C2CC2)c2c(C(=O)N(C)[C@@H](C#N)CCN(C)C)nn(C3CCOCC3)c21 [Compound I-550] | ≤ 200 | ≤ 200 | ≤ 100 |  | 
CCN1C(=O)[C@@H](NC(=O)c2cccc(C(F)(F)F)c2)[C@@H](C2CC2)c2c(C(=O)N3CCOC[C@@H]3C#N)nn(C3CCOCC3)c21 [Compound I-551] | 200 to 1000 |  | 100 to 1000 | 200 to 1000 | 
CCN1C(=O)[C@H](NC(=O)c2cccc(C(F)(F)F)c2)[C@H](C2CC2)c2c(C(=O)N(CC#N)C3CC3)nn(-c3ccccc3)c21 [Compound I-557] | 1000 to 3000 |  | > 1000 | 1000 to 3000 | 
CCN1C(=O)[C@H](NC(=O)c2cccc(C(F)(F)F)c2)[C@H](c2ccc(F)cc2)c2c(C(=O)N3CCC[C@H]3C#N)nn(C3CC3)c21 [Compound I-558] | 1000 to 3000 |  | > 1000 | 1000 to 3000 | 
CCN1C(=O)[C@@H](NC(=O)c2cccc(C(F)(F)F)c2)[C@@H](C2CCCC2)c2c(C(=O)N(C)[C@@H](C)C#N)nn(C3CCOCC3)c21 [Compound I-559] | ≤ 200 |  | ≤ 100 | 200 to 1000 | 
